Experiments:
delta-endotoxin = assay: Delta-endotoxin level in tissues of field-grown NuCotn 32B after in-furrow aldicarb; format: in vivo, cotton (NuCotn® 32B); conditions: Temik 15G in furrow, about 0.5 kg/ha active ingredient; various points in the growing season
Experimental: Seeds of NuCotn® 32B are planted in a field. Aldicarb, in the form of the commercial product Temik® 15G (a 15% weight/weight granular formulation) is applied in the furrow that comprises the seed at a rate of about 0.5 kg/ha of active ingredient or 3.3 kg/ha of commercial product. At various points in the growing season, the plant tissues are tested for the levels of the delta-endotoxin.

NuCotn® 32B = assay: Number of bolls on field-grown NuCotn 32B after side-dress aldicarb; format: in vivo, cotton; conditions: Temik 15G side-dress 7.8 kg/ha commercial product; after a full growing season
Excerpt: (§1) Seeds of NuCotn® 32B are planted in a field. Aldicarb, in the form of the commercial product Temik® 15G (a 15% weight/weight granular formulation) is applied as a side-dress at 7.8 kg/ha of commercial product. […] The amount of damage due to bollworm attack on the cotton is less in those treated with aldicarb in comparison to those not treated with aldicarb.

bollworm = assay: Bollworm damage on field-grown NuCotn 32B after side-dress aldicarb; format: in vivo; conditions: Temik 15G side-dress 7.8 kg/ha commercial product; after a full growing season
Excerpt: as §1

Heliothis virescens = assay: Bt cotton tissue incorporated into Heliothis diet, pupation bioassay (EC50P); format: in vivo; conditions: aldicarb at plant, tissue collected after 90 days
Experimental: Cotton leaves and squares were collected from treatments of Bt Cotton wherein the cotton was treated with Temik® 15G under the following conditions;
A) 0.45 lbs active ingredient per acre at plant (0.5 kg/ha)
B) […] active ingredient per acre at plant; […] and
C) 0.75 lbs active ingredient per acre (0.84 kg/ha) at plant and followed 3 weeks later by a side-dress treatment of 1.0 lbs per acre (1.12 kg/ha) of active ingredient.
One planting was not treated with aldicarb.
After 90 days leaves and squares were collected, washed with soap and water, allowed to dry, washed with acetone, allowed to dry and finally washed with chloroform. The tissues were then freeze dried, ground in a mortar and pestle and stored at room temperature.
The cotton tissues were incorporated into a Heliothis diet and fed to Heliothis virescens. The larvae in the cups were weighed at seven days after infestation and the number of pupae were counted 14 and 21 days after infestation. The percent pupation was calculated at the different concentrations and the EC50P (the amount of tissue per liter of diet that reduced pupation by 50%) was calculated for each insecticide treatment to express the amount of toxin activity in the treatment.

Roundup Ready® Cotton [1] = assay: Fruiting of Roundup Ready Cotton, insecticide at planting, Roundup at four-leaf stage; format: in vivo; conditions: for % change from UTC (Squares per Plant) / Squares per Plant / % change from UTC (Squares + Bolls) / Squares + Bolls: Roundup at four-leaf stage; for % change from UTC (Squares per Plant) / Squares per Plant: 45 days after Roundup treatment; for % change from UTC (Squares + Bolls) / Squares + Bolls: after 62 days
Experimental: (§2) A plot of Roundup Ready® Cotton (RRC was grown up. One part of the plot was treated with Temik® at a rate of 5.6 kg/ha of commercial product at the time of planting of the seed. Another part was treated with Disyston® (disulfoton) at 22.24 kg of commercial product/ha the time of planting of the seed. Another part of the plot was grown from seed treated with Gauch® (imidactoprid) at a rate of 0.357 kg of commercial product per 100 kg of seed. One part of the plot was left untreated by an insecticide which is called hereafter the untreated check (UTC).
The isopropylamine salt of glyphosate was applied to all the cotton plants at the four-leaf stage in the form of the commercial product Roundup® at a rate of 32 oz of commercial product per acre (=[…] of active ingredient). The following results were observed 45 days after the Roundup® treatment:
After 62 days, many squares had matured to bolls and the following observations were made: […]

Roundup Ready® Cotton [2] = assay: Fruiting of Roundup Ready Cotton, insecticide at planting, Roundup at six-leaf stage; format: in vivo; conditions: for % change from UTC (Squares per Plant) / Squares per Plant: 40 days after Roundup treatment; for % change from UTC (Square & Bolls) / Square & Bolls: after 57 days
Experimental: as §2
Roundup Ready® Cotton was grown up as in Example 5 and treated with Roundup at the six-leaf stage.
The following results were observed 40 days after the Roundup® treatment:
After 57 days, many of the square had matured to bolls.

CNC(=O)ON=CC(C)(C)SC [aldicarb, 2-methyl-2-(methylthio)propionaldehyde O-(methylcarbamoyl)oxime]
level of the delta-endotoxin in plant tissues vs plants not treated (delta-endotoxin): higher level of the endotoxin
number of bolls on the plants vs not treated (NuCotn® 32B): larger number of bolls
amount of damage due to bollworm attack vs not treated (bollworm): less
amount of tissue to reduce pupation by 50% (EC50P) vs untreated check (Heliothis virescens; leaf tissue, reading three weeks after infestation): higher amounts of tissue
amount of tissue to reduce pupation by 50% (EC50P) vs untreated check (Heliothis virescens; leaf tissue, reading two weeks after infestation): higher amounts of tissue
amount of tissue to reduce pupation by 50% (EC50P) vs untreated check (Heliothis virescens; square tissue, reading three weeks after infestation): lesser amounts of tissue
amount of tissue to reduce pupation by 50% (EC50P) vs untreated check (Heliothis virescens; square tissue, reading two weeks after infestation): lesser amounts of tissue
% change from UTC (Squares per Plant) (Roundup Ready® Cotton [1]): +21%
Squares per Plant (Roundup Ready® Cotton [1]): 9.05
% change from UTC (Squares + Bolls) (Roundup Ready® Cotton [1]): +18.7%
Squares + Bolls (Roundup Ready® Cotton [1]): 18.7
yield of cotton compared with UTC or cotton treated with other pesticides (Roundup Ready® Cotton [1]; herbicide at the four-leaf stage, summary of Example 5): increases the yield of cotton
% change from UTC (Squares per Plant) (Roundup Ready® Cotton [2]): +23%
Squares per Plant (Roundup Ready® Cotton [2]): 10.95
% change from UTC (Square & Bolls) (Roundup Ready® Cotton [2]): +11%
Square & Bolls (Roundup Ready® Cotton [2]): 16.0

O=[N+]([O-])N=C1NCCN1Cc1ccc(Cl)nc1 [imidacloprid, 1-(6-chloro-3-pyridylmethyl)-N-nitroimidazolidin-2-ylideneamine]
% change from UTC (Squares per Plant) (Roundup Ready® Cotton [1]): +18%
Squares per Plant (Roundup Ready® Cotton [1]): 8.70
% change from UTC (Squares + Bolls) (Roundup Ready® Cotton [1]): −0.2%
Squares + Bolls (Roundup Ready® Cotton [1]): 14.8
% change from UTC (Squares per Plant) (Roundup Ready® Cotton [2]): −14%
Squares per Plant (Roundup Ready® Cotton [2]): 7.60
% change from UTC (Square & Bolls) (Roundup Ready® Cotton [2]): +14%
Square & Bolls (Roundup Ready® Cotton [2]): 16.5

CCOP(=S)(OCC)SCCSCC [disulfoton]
% change from UTC (Squares per Plant) (Roundup Ready® Cotton [1]): +2%
Squares per Plant (Roundup Ready® Cotton [1]): 7.65
% change from UTC (Squares + Bolls) (Roundup Ready® Cotton [1]): −15.0%
Squares + Bolls (Roundup Ready® Cotton [1]): 12.8
% change from UTC (Squares per Plant) (Roundup Ready® Cotton [2]): −36%
Squares per Plant (Roundup Ready® Cotton [2]): 5.65
% change from UTC (Square & Bolls) (Roundup Ready® Cotton [2]): +14%
Square & Bolls (Roundup Ready® Cotton [2]): 16.5
